Source: ChEMBL document CHEMBL1201862, “PubChem BioAssay data set” (2004)
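Each compound was tested at five concentrations against cells in 96-well plates for 48 hours. GI50: concentration for 50% inhibition of growth.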 Active and inactive are the calls of the source. No stated cut-off is given here; in the data, active = GI50 up to about 1.1 µM and inactive = higher.

Tests used:
Assay in all cases: DTP human tumour cell line panel, 48 h
786-0 = system: 786-0
A498 = system: A498
A549 = system: A549
ACHN = system: ACHN
CAKI-1 = system: CAKI-1
CCRF-CEM = system: CCRF-CEM
DMS-114 = system: DMS-114
DMS-273 = system: DMS-273
EKVX = system: EKVX
HCT-116 = system: HCT-116
HL-60 = system: HL-60
HOP-62 = system: HOP-62
HOP-92 = system: HOP-92
IGROV-1 = system: IGROV-1
K562 = system: K562
KM12 = system: KM12
LXFL 529 = system: LXFL 529
M14 = system: M14
M19-MEL = system: M19-MEL
MOLT-4 = system: MOLT-4
Malme-3M = system: Malme-3M
NCI-H226 = system: NCI-H226
NCI-H23 = system: NCI-H23
NCI-H522 = system: NCI-H522
OVCAR-3 = system: OVCAR-3
OVCAR-4 = system: OVCAR-4
OVCAR-5 = system: OVCAR-5
OVCAR-8 = system: OVCAR-8
RXF 393 = system: RXF 393
RXF 631 = system: RXF 631
SF-268 = system: SF-268
SF-295 = system: SF-295
SF-539 = system: SF-539
SK-MEL-28 = system: SK-MEL-28
SK-MEL-2 = system: SK-MEL-2
SK-OV-3 = system: SK-OV-3
SN12C = system: SN12C
SNB-19 = system: SNB-19
SNB-75 = system: SNB-75
SNB-78 = system: SNB-78
SR = system: SR
SW-620 = system: SW-620
TK-10 = system: TK-10
U-251 = system: U-251
UACC-257 = system: UACC-257
UACC-62 = system: UACC-62
UO-31 = system: UO-31
XF498 = system: XF498
COLO 205 = system: COLO 205
DLD-1 = system: DLD-1
HCC 2998 = system: HCC 2998
HCT-15 = system: HCT-15
HOP-18 = system: HOP-18
HT-29 = system: HT-29
KM-20L2 = system: KM-20L2
LOX IMVI = system: LOX IMVI
NCI-H460 = system: NCI-H460
RPMI-8226 = system: RPMI-8226
SK-MEL-5 = system: SK-MEL-5

Measured: GI50

CO/C=C(\Br)c1ccc2c(c1)OCO2
inactive: 786-0 > 100 µM | A498 > 100 µM | A549 > 100 µM | ACHN > 100 µM | CAKI-1 > 100 µM | CCRF-CEM > 100 µM | DMS-114 > 100 µM | DMS-273 > 100 µM | EKVX > 100 µM | HCT-116 > 100 µM | HL-60 > 100 µM | HOP-62 > 100 µM | HOP-92 > 100 µM | IGROV-1 > 100 µM | K562 > 100 µM | KM12 > 100 µM | LXFL 529 > 100 µM | M14 > 100 µM | M19-MEL > 100 µM | MOLT-4 73.5 µM | Malme-3M > 100 µM | NCI-H226 > 100 µM | NCI-H23 > 100 µM | NCI-H522 > 100 µM | OVCAR-3 > 100 µM | OVCAR-4 > 100 µM | OVCAR-5 > 100 µM | OVCAR-8 > 100 µM | RXF 393 > 100 µM | RXF 631 > 100 µM | SF-268 > 100 µM | SF-295 > 100 µM | SF-539 > 100 µM | SK-MEL-28 > 100 µM | SK-MEL-2 > 100 µM | SK-OV-3 > 100 µM | SN12C > 100 µM | SNB-19 > 100 µM | SNB-75 > 100 µM | SNB-78 > 100 µM | SR > 100 µM | SW-620 > 100 µM | TK-10 > 100 µM | U-251 > 100 µM | UACC-257 > 100 µM | UACC-62 64.9 µM | UO-31 > 100 µM | XF498 > 100 µM

Nc1ncnc(NC2C=C(CO)C(O)C2O)c1[N+](=O)[O-] (stereo unspecified)
42.9 µM: HCT-15
inactive: 786-0 > 100 µM | A498 > 100 µM | A549 > 100 µM | ACHN > 100 µM | CAKI-1 > 100 µM | CCRF-CEM > 100 µM | COLO 205 60.3 µM | DLD-1 > 100 µM | DMS-114 > 100 µM | DMS-273 > 100 µM | EKVX > 100 µM | HCC 2998 > 100 µM | HCT-116 32.9 µM | HL-60 > 100 µM | HOP-18 > 100 µM | HOP-62 > 100 µM | HT-29 > 100 µM | IGROV-1 > 100 µM | K562 > 100 µM | KM-20L2 > 100 µM | KM12 > 100 µM | LOX IMVI > 100 µM | LXFL 529 > 100 µM | M14 > 100 µM | M19-MEL > 100 µM | MOLT-4 > 100 µM | NCI-H226 > 100 µM | NCI-H23 > 100 µM | NCI-H460 > 100 µM | OVCAR-3 > 100 µM | OVCAR-4 > 100 µM | OVCAR-5 > 100 µM | OVCAR-8 > 100 µM | RPMI-8226 > 100 µM | RXF 393 > 100 µM | RXF 631 > 100 µM | SF-268 > 100 µM | SF-295 > 100 µM | SF-539 > 100 µM | SK-MEL-28 > 100 µM | SK-MEL-2 > 100 µM | SK-MEL-5 > 100 µM | SK-OV-3 > 100 µM | SN12C > 100 µM | SNB-19 > 100 µM | SNB-75 > 100 µM | SNB-78 > 100 µM | SR > 100 µM | SW-620 28.1 µM | TK-10 > 100 µM | U-251 > 100 µM | UACC-257 > 100 µM | UACC-62 > 100 µM | UO-31 > 100 µM

CC(C)(C)C1=CC(=NNC(=S)NCc2ccccc2)C=C(C(C)(C)C)C1=O
> 100 µM: HCT-15
inactive: 786-0 55.6 µM | A498 77.4 µM | A549 42.7 µM | ACHN 67.1 µM | CCRF-CEM 52.1 µM | COLO 205 51.5 µM | DLD-1 59.6 µM | DMS-114 54.8 µM | DMS-273 > 100 µM | EKVX 89.3 µM | HCC 2998 53.7 µM | HCT-116 60.5 µM | HL-60 > 100 µM | HOP-62 > 100 µM | HT-29 73.1 µM | IGROV-1 > 100 µM | K562 83 µM | KM-20L2 > 100 µM | LOX IMVI 73.8 µM | LXFL 529 63.1 µM | M14 > 100 µM | M19-MEL 98.4 µM | MOLT-4 66.1 µM | Malme-3M > 100 µM | NCI-H226 78.5 µM | NCI-H23 64 µM | NCI-H460 47.6 µM | OVCAR-3 > 100 µM | OVCAR-4 90.2 µM | OVCAR-8 > 100 µM | RPMI-8226 > 100 µM | RXF 393 78.9 µM | RXF 631 > 100 µM | SF-268 87.3 µM | SF-295 86.3 µM | SF-539 > 100 µM | SK-MEL-28 > 100 µM | SK-MEL-2 > 100 µM | SK-MEL-5 37.6 µM | SN12C 92.5 µM | SNB-19 71 µM | SNB-75 27.9 µM | SR > 100 µM | SW-620 > 100 µM | TK-10 > 100 µM | U-251 94.2 µM | UACC-257 91.6 µM | UACC-62 > 100 µM | UO-31 52 µM | XF498 > 100 µM

CC1SC2=NC3=C(c4ccccc4C3=O)C(c3ccc(Cl)cc3)N2C1=O (stereo unspecified)
> 100 µM: HCT-15
inactive: 786-0 > 100 µM | A498 > 100 µM | A549 > 100 µM | ACHN > 100 µM | CAKI-1 > 100 µM | CCRF-CEM > 100 µM | COLO 205 > 100 µM | DLD-1 > 100 µM | DMS-114 > 100 µM | DMS-273 > 100 µM | EKVX > 100 µM | HCC 2998 > 100 µM | HL-60 > 100 µM | HOP-62 > 100 µM | HOP-92 22.3 µM | HT-29 > 100 µM | IGROV-1 > 100 µM | K562 > 100 µM | KM-20L2 > 100 µM | KM12 > 100 µM | LXFL 529 > 100 µM | M14 > 100 µM | M19-MEL > 100 µM | MOLT-4 > 100 µM | Malme-3M > 100 µM | NCI-H226 > 100 µM | NCI-H23 97.7 µM | NCI-H460 > 100 µM | NCI-H522 25.1 µM | OVCAR-3 > 100 µM | OVCAR-4 61.1 µM | OVCAR-5 > 100 µM | OVCAR-8 > 100 µM | RPMI-8226 64 µM | RXF 631 > 100 µM | SF-268 > 100 µM | SF-295 > 100 µM | SK-MEL-28 > 100 µM | SK-MEL-2 > 100 µM | SK-MEL-5 > 100 µM | SK-OV-3 > 100 µM | SN12C 95.5 µM | SNB-19 > 100 µM | SNB-75 45.8 µM | SW-620 > 100 µM | TK-10 > 100 µM | U-251 > 100 µM | UACC-257 > 100 µM | UACC-62 > 100 µM | UO-31 32.8 µM | XF498 > 100 µM
